Values of other authors as cited in patent US8637551B2, “2-(1,2-benzisoxazol-3-yl)benzylamine derivatives” (Merck Sharp & Dohme B.V., priority 2009, dated 2014).

Key:
[1] = tested on: rat (Chung) model of neuropathic pain; settings: for anti-allodynic effects in the Chung model: clinically used reference drugs
[2] = tested on: A-beta and A-delta fibres; settings: Lee et al 2005
[3] = tested on: rat CFA model of inflammatory pain
[4] = tested on: rat, mild thermal injury model
Brennan model = settings: local administration to the sciatic nerve 4 h after surgery; Dalle & Eisenach 2005
[5] = tested on: nerve injured myelinated DRG; settings: Yagi et al, 2000

Compound: CCN(c1ccccc1)c1cc(=NC)n(C)c(C)n1.Cl [ZD 7288]
- reversal of mechanical allodynia ([1]; intraperitoneal, Chung/von Frey, Chaplan et al 2003): dose-dependently reverses mechanical allodynia
- firing frequency of ectopic discharges [2]: reduced the firing frequency of ectopic discharges
- allodynia [3]: suppresses allodynia
- spontaneous pain [4]: blocks spontaneous pain
- mechanical allodynia (Brennan model): attenuates mechanical allodynia
- spontaneous activity [5]: reduces spontaneous activity

Compound: CNCC[C@H](Oc1cccc2ccccc12)c1cccs1 [duloxetine]
- anti-allodynic effects in the Chung model [1]: anti-allodynic effects

Compound: NCC1(CC(=O)O)CCCCC1 [gabapentin]
- anti-allodynic effects in the Chung model [1]: anti-allodynic effects

Compound: CN1CC[C@]23c4c5ccc(O)c4O[C@H]2[C@@H](O)C=C[C@H]3[C@H]1C5 [morphine]
- anti-allodynic effects in the Chung model [1]: anti-allodynic effects
